Measurements from patent publication US8420649B2, “Pyrido[3,2-d]pyridazine-2(1H)-one compounds as p38 modulators and methods of use thereof” (Amgen Inc., priority 2008, dated 2013).
“And” between values parts separate entries of the source, which are not always exact repeats. Identical values can stand only once. Like-named read-outs stand apart in the source and are kept apart here.

Tests used:
[1] = biological target: human p38α (Homo sapiens, UniProt Q16539); assay: Purified and activated recombinant human p38α HTRF kinase assay; format: biochemical; details: recombinant human p38α 1 nM, 50 μM ATP, read-out: p38a IC50
Experimental: Purified and Activated Recombinant Human p38α Assay Kinase Reaction Buffer: Kinase reaction buffer for p38α HTRF assays consists of 50 mM Tris-pH 7.5, 5 mM MgCl2, 0.1 mg/mL BSA, 100 μM Na3VO4 and 0.5 mM DTT. HTRF Detection Buffer: HTRF detection buffer contains 100 mM HEPES-pH 7.5, 100 mM NaCl, 0.1% BSA, 0.05% Tween-20, and 10 mM EDTA. Serial Dilution of Compounds: Compounds were dissolved in 100% DMSO and serially diluted (3 fold, 10 point) in a polypropylene 96-well microtiter plate (drug plate). The final starting concentration of compounds in the p38α enzymatic assays was 1 μM. […] Kinase Reaction: […] See table below for actual concentrations. In the absence of substrate, the background was measured as LO control. The reaction was allowed to incubate for 1 hour at RT. Assay Reagent Concentrations: […] HTRF Detection: […] After 60 minutes incubation at room temperature, the assay plate was read in a Discovery Plate Reader. The wells were excited with coherent 320 nm light and the ratio of delayed ([…] post excitation) emissions at […] (native europium fluorescence) and 665 nm (europium fluorescence transferred to allophycocyanin-an index of substrate phosphorylation) was determined (Park et al, 1999). Data Analysis: The proportion of substrate phosphorylated in the kinase reaction in the presence of compound compared with that phosphorylated in the presence of DMSO vehicle alone (HI control) was calculated using the formula: % control (POC)=(compound-average LO)/(average HI-average LO)*100. […] The inhibition constant (Ki) of the inhibitor was estimated from the IC50 (compound concentration at the point of inflection C) using the Cheng-Prussof equation: […] All results were expressed as the mean±the standard error of the mean.

[2] = system: IL-1β, IL-6 and TNF-α production by LPS-activated PBMC; assay: Lipopolysaccharide-activated PBMC cytokine production assay; format: cell-based; details: Homo sapiens, read-out: IC50 in the whole blood PMBC assay
Experimental: Lipopolysaccharide-Activated PBMC Cytokine Production Assay
Test compounds were evaluated in vitro for the ability to inhibit the production of IL-1β, IL-6, and TNF-α by PBMC activated with bacterial lipopolysaccharide (LPS). Fresh leukocytes were obtained from a local blood bank, and peripheral blood mononuclear cells (PBMCs) were isolated by density gradient centrifugation on Ficol-Paque Plus (Pharmacia).
Preparation of Test Compound Stock Solutions
All reagents were prepared in RPMI 1640+10% v/v human AB serum+1× Pens/Strep/Glu (assay medium). Test compounds were dissolved in 100% DMSO and serially diluted in 96-well polypropylene round bottom micro titer plates (drug plate). Serial dilutions were then diluted 1:250 into assay medium to a 4× working concentration. Compound serial dilutions were half-log, 10 point titrations with a final starting concentration of 1 μM.
Treatment of Cells with Test Compounds and Activation with Lipopolysaccharide
LPS was prepared to a 4× concentration in assay medium. 100 μl of PBMC (1×10^6 cells/ml) were plated in a 96-well polystyrene flat bottom micro titer tissue culture plate and incubated with 50 μl of 4× compound serial dilution for 1 hour at 37° C., 5% CO2 in a tissue culture incubator. 50 μl 4×LPS or control was added and the plates were incubated at 37° C., 5% CO2 in a tissue culture incubator for 18 hours. The final DMSO concentration was 0.1%. The total volume was 200 μL. The final LPS concentration was 100 ng/mL. After 18 hours culture supernatants were removed and IL-1β, IL-6, and TNF-α presence in the supernatants was quantified using MSD ECL based technology.
20 μL of culture supernatant were added to MSD plates, and incubated for one hour at room temperature. 20 μL of detection antibody diluted in antibody diluent (1 μg/mL), and 110 μL of 2× Read Buffer P was added, and incubated for one hour at RT. Electrochemiluminescence was measured using the SECTOR HTS Imager (MSD, Gaithersburg, Md.).
Compound IC50 values were calculated as follows: The proportion of cytokine production in the presence of compound compared to the cytokine production in the presence of the DMSO vehicle alone (Hi control) was calculated using the formula: Percent Control (POC)=(compound−average Lo)/(average Hi−average Lo)*100.

[3] = system: TNF-α induced IL-8 production in human whole blood; assay: Inhibition of TNF-α induced IL-8 in 50% human whole blood; format: cell-based
Experimental: Inhibition of TNF-α Induced IL-8 in 50% Human Whole Blood Test compounds were evaluated in vitro for the ability to inhibit the production of secreted IL-8 by whole blood activated with TNF-α. Fresh human whole blood was obtained from healthy, non-medicated volunteers in sodium heparin tubes. Compound Dilution—Assay Procedure […] Cytokine Measurement Cytokines are measured on antibody (Ab) sandwich ECL based 96-well detection plates. 20 ul of supernatant are added to plate and plate is sealed and shaken at RT for 1 hour. 130 ul of detection Ab cocktail is added and plates are sealed and shaken for 1 hour in the dark at RT. Plates are read on MSD Sector HTS instrument.

[4] = system: TNF-α production by LPS-activated THP1 cells; assay: Lipopolysaccharide-activated THP1 cell TNF production assay; format: cell-based; details: Homo sapiens, THP-1, 3 hours, read-out: IC50 in the THP-1 cellular TNF production assay
Experimental: Lipopolysaccharide-activated THP1 Cell TNF Production Assay
THP1 cells were resuspended in fresh THP1 media (RPMI 1640, 10% heat-inactivated FBS, 1×PGS, 1×NEAA, plus 30 μM βME) at a concentration of 1.5×10^6 cells per mL. One hundred microliters of cells per well were plated in a polystyrene 96-well tissue culture plate. 1.5 micrograms per mL of bacterial LPS was prepared in THP1 media and transferred to the first 11 columns of a 96-well polypropylene plate. Column 12 contained only THP1 media for the LO control. Compounds were dissolved in 100% DMSO and serially diluted 3 fold in a polypropylene 96-well microtiter plate (drug plate). Columns 6 and 12 were reserved as controls (HI controls and LO controls respectively) and contained only DMSO. […] Fifty microliters of conditioned media was transferred to a 96-well MULTI-ARRAY™ 96-well small spot plate—custom coated with MAB610 containing 100 μL of 2× Read Buffer P supplemented with 0.34 nM AF210NA polyclonal Ab labeled with ruthenium (MSD-Sulfo-TAG™—NHS ester). After an overnight incubation at room temperature with shaking, the reaction was read on the Sector Imager™ 6000. […] The amount of secreted TNF-α in the presence of test compounds compared with that in the presence of DMSO vehicle alone (HI control) was calculated using the formula: % control (POC)=(cpd−average LO)/(average HI−averageLO)*100. […]

[5] = Homo sapiens, read-out: WB TNF/IL8 IC50, TNF-α (1 nM) induced IL-8, 50% human whole blood, 16-18 hours

human p38α, sequence (Q16539 whole entry): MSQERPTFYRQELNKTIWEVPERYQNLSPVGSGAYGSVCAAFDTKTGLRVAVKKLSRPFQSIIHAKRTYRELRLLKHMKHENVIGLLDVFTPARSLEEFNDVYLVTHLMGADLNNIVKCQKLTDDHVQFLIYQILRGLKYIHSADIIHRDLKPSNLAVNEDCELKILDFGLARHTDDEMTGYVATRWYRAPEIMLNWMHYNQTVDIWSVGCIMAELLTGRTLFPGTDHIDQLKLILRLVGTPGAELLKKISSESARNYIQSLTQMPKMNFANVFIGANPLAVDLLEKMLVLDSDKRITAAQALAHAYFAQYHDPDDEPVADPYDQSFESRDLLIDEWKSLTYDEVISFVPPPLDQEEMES

**Q.** Which IC50 [1] does the source give for `Cc1cc(S(C)(=O)=O)ccc1-c1nncc2cc(Nc3ccc(F)cc3F)c(=O)n(C)c12` [Example 8, 3-((2,4-difluorophenyl)amino)-1-methyl-8-(2-methyl-4-(methylsulfonyl)phenyl)pyrido[2,3-d]pyridazin-2(1H)-one] here?
**A.** 0.0017 µM

**Q.** And the IC50 ([2]; 18 h)?
**A.** ≤ 1 µM

**Q.** With `CCn1c(=O)c(Nc2ccc(F)cc2F)cc2cnnc(-c3ccc(F)cc3F)c21` [Example 5, 8-(2,4-difluorophenyl)-3-((2,4-difluorophenyl)amino)-1-ethylpyrido[2,3-d]pyridazin-2(1H)-one] as the compound, how does the IC50 [1] read?
**A.** 0.0002 µM

**Q.** And the IC50 ([2]; 18 h)?
**A.** ≤ 1 µM

**Q.** Which IC50 [1] does the source give for `Cc1cc(S(C)(=O)=O)ccc1-c1nncc2cc(Oc3ccc(F)cc3F)c(=O)n(C)c12` [Example 9, 3-(2,4-difluorophenoxy)-1-methyl-8-(2-methyl-4-(methylsulfonyl)phenyl)pyrido[2,3-d]pyridazin-2(1H)-one] here?
**A.** 0.011 µM

**Q.** What about the IC50 ([2]; LPS 100 ng/mL, 18 hours) of the same compound?
**A.** ≤ 1 µM

**Q.** Which results are given for `Cn1c(=O)c(Nc2ccc(F)cc2)cc2cnnc(-c3ccc(F)cc3F)c21` [Example 11, 8-(2,4-difluorophenyl)-3-((4-fluorophenyl)amino)-1-methylpyrido[2,3-d]pyridazin-2(1H)-one]?
**A.** IC50 [1]: 0.0022 µM; IC50 ([2]; LPS 100 ng/mL, 18 hours): ≤ 1 µM

**Q.** For `Cn1c(=O)c(Nc2ncc(F)cc2F)cc2cnnc(-c3ccc(F)cc3F)c21` [Example 7, 8-(2,4-difluorophenyl)-3-((3,5-difluoro-2-pyridinyl)amino)-1-methylpyrido[2,3-d]pyridazin-2(1H)-one], which IC50 [1] is on record?
**A.** 0.111 µM

**Q.** What about the IC50 [3, 5] of the same compound?
**A.** > 2.5 µM

**Q.** What does the source list for `Cn1c(=O)c(Nc2ccc(F)cc2F)cc2cnnc(-c3ccc(C(F)(F)F)cc3F)c21` [Example 3, 3-(2,4-difluorophenylamino)-8-(2-fluoro-4-(trifluoromethyl)phenyl)-1-methylpyrido[3,2-d]pyridazin-2(1H)-one]?
**A.** IC50 [1]: 0.0023 µM; IC50 ([2]; 18 h): ≤ 1 µM

**Q.** With `Cn1c(=O)c(Oc2ccc(F)cc2F)cc2cnnc(-c3ccccc3Cl)c21` [Example 6, 8-(2-chlorophenyl)-3-(2,4-difluorophenoxy)-1-methylpyrido[2,3-d]pyridazin-2(1H)-one] as the compound, how does the IC50 [1] read?
**A.** 0.0006 µM

**Q.** And the IC50 ([2]; 18 h)?
**A.** ≤ 1 µM

**Q.** For `Cn1c(=O)c(Oc2ccc(F)cc2)cc2cnnc(-c3ccc(F)cc3F)c21` [Example 2, 8-(2,4-difluorophenyl)-3-(4-fluorophenoxy)-1-methylpyrido[3,2-d]pyridazin-2(1H)-one], which IC50 [1] is on record?
**A.** ≤ 0.125 µM and 0.102 µM

**Q.** And the IC50 [4]?
**A.** ≤ 1 µM

**Q.** And the IC50 ([2]; 18 h)?
**A.** ≤ 1 µM

**Q.** What about the IC50 [3, 5] of the same compound?
**A.** ≤ 0.3 µM

**Q.** And the IC50 ([3]; read-out: WB TNF/IL8 IC50, TNF-α (1 nM) induced IL-8, 50% human whole blood, 16-18 hours)?
**A.** 0.273 µM

**Q.** `Cn1c(=O)c(Nc2ccc(F)cn2)cc2cnnc(-c3ccc(F)cc3F)c21` [Example 4, 8-(2,4-difluorophenyl)-3-((5-fluoro-2-pyridinyl)amino)-1-methylpyrido[2,3-d]pyridazin-2(1H)-one] was tested. Which IC50 [1] did it give?
**A.** 0.327 µM

**Q.** What about the IC50 [3, 5] of the same compound?
**A.** > 2.5 µM

**Q.** With `Cn1c(=O)c(Nc2ccc(F)cc2F)cc2cnnc(-c3ccc(F)cc3F)c21` [Example 1, 8-(2,4-difluorophenyl)-3-(2,4-difluorophenylamino)-1-methylpyrido[3,2-d]pyridazin-2(1H)-one] as the compound, how does the IC50 [1] read?
**A.** 0.0008 µM

**Q.** What about the IC50 [4] of the same compound?
**A.** ≤ 1 µM

**Q.** What about the IC50 ([2]; 18 h) of the same compound?
**A.** ≤ 1 µM

**Q.** Which results are given for `Cn1c(=O)c(Oc2ccc(F)cc2F)cc2cnnc(-c3ccc(F)cc3F)c21` [Example 12, 3-(2,4-difluorophenoxy)-8-(2,4-difluorophenyl)-1-methylpyrido[2,3-d]pyridazin-2(1H)-one]?
**A.** IC50 [1]: 0.0084 µM; IC50 ([2]; LPS 100 ng/mL, 18 hours): ≤ 1 µM

**Q.** How did the IC50 [1] turn out when `Cn1c(=O)c(Nc2ccc(F)cc2F)cc2cnnc(-c3ccc(S(C)(=O)=O)cc3Cl)c21` [Example 10, 8-(2-chloro-4-(methylsulfonyl)phenyl)-3-((2,4-difluorophenyl)amino)-1-methylpyrido[2,3-d]pyridazin-2(1 H)-one] was run?
**A.** 0.0008 µM

**Q.** What about the IC50 ([2]; LPS 100 ng/mL, 18 hours) of the same compound?
**A.** ≤ 1 µM
